These results are taken from paper PMC7235250, “Estimation of dietary ^14C dose coefficient using ^13C-labelled compound administration analysis” (Scientific Reports, 2020).

The nature of data set [1]: 50-year cumulative body burden and committed effective dose / dose coefficient calculated with the metabolic models. Set-up: species or system human. Particulars: orally ingested 1 g of ^13C.
Description: The dose coefficients obtained with each assumption are called non conservative estimation (ER) and conservative estimation (EC) hereafter. The recovered fraction was assumed to be distributed uniformly in the whole-body carbon with a tissue weighting factor of unity. […] In addition to these estimations, we calculated the most conservative estimation (EX) adopting the tissue weighting factor of unity for unrecovered carbon. We solely adopted the value for the maximal estimation.
The 50-year cumulative body burden of ^14C after a single ingestion of 1 Bq of ^14C in each compound (BC Bq d) was calculated using the metabolic model and its parameters described above, under the assumption of the same metabolic behaviour of ^13C and ^14C. […] The total cumulative burden was derived as a sum of burdens from the recoverable and unrecoverable fractions with designated proportions Rr and 1−Rr, respectively. For the recoverable fraction, the burden was calculated using following equation:2 BC≈∑mdm/km+∑m∑ndmdmn/kmn where, every dm was divided by Rr when Rr was larger than unity.
The 50-year committed effective dose (Sv) from ingestion of 1 Bq ^14C was calculated from the 50-year cumulative burden by using the ratio of absorbed dose to ^14C radioactivity, radiation weighting factor of beta-ray from ^14C (1.0) and tissue weighting factors. […]
Details of data set [2]: method as in doi:10.1093/oxfordjournals.rpd.a032384. Particulars: rats, 100 days after administration; cited from earlier work.
Data set [3] can be described thus: Second experiment: ^13C-labelled compounds once daily for 4 successive days, ^13C/^12C ratio in breath and hair, metabolic model. Particulars: oral once daily for 4 days; for Rr, recovery ratio of administered ^13C / dB, distribution ratio of ^13C into breath pathway to administered ^13C / dBf, distribution ratio into fast compartment of breath pathway / dO, distribution ratio of ^13C into other* pathway (hair) to administered ^13C / dOf, distribution ratio into fast compartment of other* pathway / kBf, excretion rate constant, fast compartment, breath pathway / kBs, excretion rate constant, slow compartment, breath pathway / kOf, excretion rate constant, fast compartment, other* pathway / kOs, excretion rate constant, slow compartment, other* pathway: mean. The text has this:
The rate of ^13C excretion for each pathway (Em, g d^−1) is given by the following equations:1 Em=∑nkmndmdmnkm/km−kmn(e^−kmnt−e^−kmt) where, m is the excretion pathway symbol of B, U, F, and O corresponding to the excretion pathways of breath, urine, faeces, and other*, respectively; n is the symbol of f and s corresponding to the compartments with fast and slow metabolism, respectively; km and kmn are the excretion rate constants from compartment Cm and Cmn, respectively; dm is the distribution ratio of ^13C into compartment Cm to the administered ^13C; dmn is the distribution ratio of ^13C into compartment Cmn to ^13C from compartment Cm; Rr is the recovery ratio of administered ^13C. The sum of distribution ratios of compartments with fast and slow metabolism was fixed to unity (i.e. dBf + dBs = 1).
Additional doses of ^13C-labelled compounds were administered on day 160 for marking the ^13C/^12C ratio of hair samples and the volunteers freely ate meals without calorific restrictions.
In the first experiment, breath, urine, faeces, and hair samples were periodically collected and the ^13C/^12C ratio was analysed following the procedure described in a previous paper. […] Faecal samples were collected once before day 0 and at every defecation from day 0 to 14. On day 0, additional breath and urine samples were collected frequently after administration. […] According to the section number of the two peaks, the experimental date for each section between the two peaks was determined under an assumption of uniform hair growth.
Some volunteers also dropped out of the sampling procedure for various reasons.
The detailed procedures used were described in a previous published paper. When urine and hair samples had no increase phase, the values of kU and kO were fixed to those of kB obtained from the same volunteers in the regression analysis.

On the set-up of data set [4]: method as in PMID 14371643. The settings on record: intravenous administration; cited from earlier work.

On to `CCCCCCCCCCCCCCCC(=O)O` [palmitic acid], for which, in data set [1], the “contribution of faeces pathway to 50-year cumulative body burden” value is given as 0.034 ± 0.070% and the “contribution of urine pathway to 50-year cumulative body burden” value is 0.038 ± 0.030%.
Turning to `CCCCCCCC/C=C\CCCCCCCC(=O)O` [^14C-labelled oleic acid, oleic acid], the “^14C concentration in adipose tissue relative to that of palmitic acid” value in data set [2] was “three times higher”.
As to `NCC(=O)O` [Glycine, glycine], in data set [3] (All (both sexes)), the “Rr, recovery ratio of administered ^13C” value came to 1.0; the “dB, distribution ratio of ^13C into breath pathway to administered ^13C” value (from here on “dB, distribution ratio”) came to 0.80; the “dBf, distribution ratio into fast compartment of breath pathway” value is recorded as 0.36; the “dO, distribution ratio of ^13C into other* pathway (hair) to administered ^13C” value (“dO, distribution ratio” for short) came out at 0.18. In addition, in data set [3] (All (both sexes)), the “dOf, distribution ratio into fast compartment of other* pathway” value was determined as 0.50; the “kBf, excretion rate constant, fast compartment, breath pathway” value (shortened to “kBf, excretion rate constant”) was found to be 11 day⁻¹; the “kBs, excretion rate constant, slow compartment, breath pathway” value (from here on “kBs, excretion rate constant”) worked out at 0.17 day⁻¹; the “kOf, excretion rate constant, fast compartment, other* pathway” value (“kOf, excretion rate constant” for short) came to 0.10 day⁻¹. The “kOs, excretion rate constant, slow compartment, other* pathway” value (“kOs, excretion rate constant” for short) in data set [3] (All (both sexes)) was determined as 0.0086 day⁻¹. In data set [3] (Female), the “Rr, recovery ratio of administered ^13C” value was determined as 1.0; the “dB, distribution ratio” value was found to be 0.84; the “dBf, distribution ratio into fast compartment of breath pathway” value worked out at 0.36; the “dO, distribution ratio” value amounted to 0.18. In data set [3] (Female), the “dOf, distribution ratio into fast compartment of other* pathway” value was 0.52; the “kBf, excretion rate constant” value is 11 day⁻¹; the “kBs, excretion rate constant” value was found to be 0.18 day⁻¹; the “kOf, excretion rate constant” value was 0.098 day⁻¹. In addition, the “kOs, excretion rate constant” value in data set [3] (Female) turned out to be 0.0091 day⁻¹. For the same compound, in data set [3] (Male), the “Rr, recovery ratio of administered ^13C” value stood at 0.93; the “dB, distribution ratio” value was 0.74; the “dBf, distribution ratio into fast compartment of breath pathway” value was found to be 0.37; the “dO, distribution ratio” value is listed as 0.18. In data set [3] (Male), the “dOf, distribution ratio into fast compartment of other* pathway” value is 0.47; the “kBf, excretion rate constant” value stood at 9.7 day⁻¹; the “kBs, excretion rate constant” value came out at 0.16 day⁻¹; the “kOf, excretion rate constant” value amounted to 0.11 day⁻¹. In data set [3] (Male), the “kOs, excretion rate constant” value came out at 0.0080 day⁻¹. Further, the “estimated distribution ratio of ^13C for the breath pathway (dB)” value in data set [3] (mean ± S.D., both sexes) is listed as 80 ± 9%.
For the compound `N[14CH2]C(=O)O` [glycine-[2-^14C]], the “recovery through the breath pathway” value in data set [4] is reported as 86%.
